Where two headings read alike, the source gives them in different places.
Columns and labels:
Assay type in all cases: cell-based
[1] = tested on: T-Rex 293 cells having increased expression of estrogen receptor alpha protein; assay: Cellular growth inhibition assay, T-Rex 293 cells, (+) doxycycline; details: T-REx-293, 72 h, 72 hours
Outline: (§1)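 Growth of a doxycycline-inducible ERα T-Rex 293 clone, induced or not with 3 ng/mL doxycycline, was followed for 72 h with test compound in hormone-depleted medium. CellTiter-Glo luminescence gave GI50.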

[2] = tested on: T-Rex 293 cells lacking increased expression of estrogen receptor alpha protein; assay: Cellular growth inhibition assay, T-Rex 293 cells, (−) doxycycline; details: T-REx-293, 72 h, 72 hours
Outline: as §1

[3] = tested on: MCF7 cells (ATCC #HTB-22); assay: Cellular growth inhibition assay, MCF7 cells purchased from ATCC; details: Homo sapiens, MCF7, 144 h, Table 8-A; MCF7 cells purchased from ATCC; six days; CellTiter-Glo; read-out: GI50
Outline: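 GI50 values come from a four-parameter fit of CellTiter-Glo 2.0 luminescence after six days of compound exposure at 37° C. Seeding density depended on the source: 225 cells/well for ECACC MCF7, 1,500 for ATCC. Medium was RPMI 1640 with 10% FBS and 0.2 U/ml insulin.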

[4] = Table 7-A, T-Rex 293 cells with doxycycline (increased ERα expression), CellTiter-Glo, read-out: (+) Dox GI50
[5] = Table 7-A, T-Rex 293 cells without doxycycline (lacking increased ERα expression), CellTiter-Glo, read-out: (−) Dox GI50

Row | GI50 [3] | Compound | GI50 [1, 4] | GI50 [2, 5] | GI50 ([1]; T-Rex 293 cells with doxycycline-induced ERα expression, CellTiter-Glo 2.0, read-out: (+) Dox TRex ERa (GI50)) | GI50 ([2]; T-Rex 293 cells without doxycycline, CellTiter-Glo 2.0, read-out: (−) Dox TRex ERa (GI50)) | GI50 ([1]; Table 7-B, T-Rex 293 cells with doxycycline (increased ERα expression), CellTiter-Glo, read-out: (+) Dox GI50) | GI50 ([2]; Table 7-B, T-Rex 293 cells without doxycycline (lacking increased ERα expression), CellTiter-Glo, read-out: (−) Dox GI50)
1 | < 50 nM | Cc1sc2c(c1C)C(c1ccc(N3CCC(O)(CN4CCN(c5ccc([C@@H]6c7ccc(O)cc7CC[C@@H]6c6cccc(F)c6)c(F)c5)CC4)CC3)cc1)=N[C@@H](C)c1nnc(C)n1-2 [III-289] | < 50 nM | 500 to 2500 nM |  |  |  | 
2 | 50 to 500 nM | Cc1sc2c(c1C)C(c1ccc(N3CC(CC4CCN(CC5CN(c6ccc([C@@H]7c8ccc(O)cc8CC[C@@H]7c7ccccc7)cc6)C5)CC4)C3)cc1)=N[C@@H](C)c1nnc(C)n1-2 [III-131] | < 50 nM | 500 to 2500 nM |  |  |  | 
3 | < 50 nM | Cc1sc2c(c1C)C(c1ccc(N3CCC(N4CCN(CCOc5ccc([C@@H]6c7ccc(O)cc7CC[C@@H]6c6ccccc6)cc5)CC4)CC3)cc1)=N[C@@H](Cc1ncco1)c1nnc(C)n1-2 [III-105] | < 50 nM | 50 to 500 nM |  |  |  | 
4 | 50 to 500 nM | Cc1sc2c(c1C)C(c1ccc(N3CC4(CC(CN5CCN(c6cc(F)c([C@H]7c8ccc(O)cc8CC[C@H]7c7ccccc7)c(F)c6)CC5)C4)C3)cc1)=N[C@@H](C)c1nnc(C)n1-2 [III-278] | 50 to 500 nM | 500 to 2500 nM |  |  |  | 
5 | < 50 nM | Cc1sc2c(c1C)C(c1ccc(N3CC4(CC(CN5CCN(c6ccc([C@@H]7c8ccc(O)cc8CC[C@@H]7c7ccccc7)cc6)CC5)C4)C3)cc1)=N[C@@H](C)c1nnc(C)n1-2 [III-243] | < 50 nM | 500 to 2500 nM |  |  |  | 
6 | 50 to 500 nM | Cc1cc(N2CCN(CC3(O)CCN(c4ccc(C5=N[C@@H](C)c6nnc(C)n6-c6sc(C)c(C)c65)cc4)CC3)CC2)c(F)cc1[C@H]1c2ccc(O)cc2CC[C@H]1c1ccccc1 [III-285] | 50 to 500 nM | 50 to 500 nM |  |  |  | 
7 | 500 to 2500 nM | Cc1sc2c(c1C)C(c1ccc(N3CCN(CC4CCN(c5ccc([C@@H]6c7ccc(O)cc7CC[C@@H]6c6ccccc6)cc5)CC4)CC3)cc1)=N[C@H](Cc1ncco1)c1nnc(C)n1-2 [III-1, (5R,6S)-6-phenyl-5-(4-(4-((4-(4-((R)-2,3,9-trimethyl-6-(oxazol-2-ylmethyl)-6H-thieno[3,2-f][1,2,4]triazolo[4,3-a][1,4]diazepin-4-yl)phenyl)piperazin-1-yl)methyl)piperidin-1-yl)phenyl)-5,6,7,8-tetrahydronaphthalen-2-ol] | > 2500 nM | > 2500 nM |  |  |  | 
8 | 500 to 2500 nM | Cc1sc2c(c1C)C(c1ccc(N3CCN(CC4CCN(c5ncc([C@H]6c7ccc(O)cc7CC[C@H]6c6ccccc6)cn5)CC4)CC3)cc1)=N[C@@H](C)c1nnc(C)n1-2 [III-122] | 500 to 2500 nM | > 2500 nM |  |  |  | 
9 | 500 to 2500 nM | Cc1sc2c(c1C)C(c1ccc(N3CC(CC4CCN(c5ccc([C@@H]6c7ccc(O)cc7CC[C@@H]6c6ccccc6)cc5)CC4)C3)cc1)=N[C@@H](C)c1nnc(C)n1-2 [III-138] | 500 to 2500 nM | > 2500 nM |  |  |  | 
10 | 50 to 500 nM | Cc1sc2c(c1C)C(c1ccc(N3CCC(O)(CN4CCN(c5ccc([C@H]6c7ccc(O)cc7CC[C@H]6c6ccccc6F)c(F)c5)CC4)CC3)cc1)=N[C@@H](C)c1nnc(C)n1-2 [III-292] | 50 to 500 nM | 50 to 500 nM |  |  |  | 
11 | < 50 nM | Cc1sc2c(c1C)C(c1ccc(NCCCN3CCN(CCOc4ccc([C@@H]5c6ccc(O)cc6CC[C@@H]5c5ccccc5)cc4)CC3)cc1)=NC(Cc1ncco1)c1nnc(C)n1-2 (stereo partly drawn) [III-37] | < 50 nM | 50 to 500 nM |  |  |  | 
12 | 50 to 500 nM | Cc1sc2c(c1C)C(c1ccc(N3CCC4(CCN(CC5CCC(c6ccc([C@@H]7c8ccc(O)cc8CC[C@@H]7c7ccccc7)cc6)CC5)C4)CC3)cc1)=N[C@@H](C)c1nnc(C)n1-2 (stereo partly drawn) [III-191] | < 50 nM | 50 to 500 nM |  |  |  | 
13 | 50 to 500 nM | Cc1sc2c(c1C)C(c1ccc(N3CC(CCN4CC(COc5ccc([C@@H]6c7ccc(O)cc7CC[C@@H]6c6ccccc6)cc5)C4)C3)cc1)=N[C@@H](C)c1nnc(C)n1-2 [III-84] | < 50 nM | 500 to 2500 nM |  |  |  | 
14 | 50 to 500 nM | Cc1sc2c(c1C)C(c1ccc(N3CC4(CC(CN5CCN(c6cc(F)c([C@@H]7c8ccc(O)cc8CC[C@@H]7c7ccc(F)cc7)c(F)c6)CC5)C4)C3)cc1)=N[C@@H](C)c1nnc(C)n1-2 [III-296] | 50 to 500 nM | 500 to 2500 nM |  |  |  | 
15 | 50 to 500 nM | Cc1sc2c(c1C)C(c1ccc(N3CC4(C3)CC(O)(CN3CCN(c5cc(F)c([C@H]6c7ccc(O)cc7CC[C@H]6c6ccc(F)cc6)c(F)c5)CC3)C4)cc1)=N[C@@H](C)c1nnc(C)n1-2 [III-280] | 50 to 500 nM | 500 to 2500 nM |  |  |  | 
16 | < 50 nM | Cc1sc2c(c1C)C(c1ccc(N3CC(C(=O)N4CCN(CC5CN(c6ccc([C@@H]7c8ccc(O)cc8CC[C@@H]7c7ccccc7)cc6)C5)CC4)C3)cc1)=N[C@@H](Cc1ncco1)c1nnc(C)n1-2 [III-168] | < 50 nM | 50 to 500 nM |  |  |  | 
17 | 50 to 500 nM | Cc1sc2c(c1C)C(c1ccc(N3CC4(CCN(CC5CCN(c6ccc([C@H]7c8ccc(O)cc8CC[C@H]7c7ccccc7)cc6)CC5)CC4)C3)cc1)=N[C@@H](C)c1nnc(C)n1-2 [III-11] | < 50 nM | 50 to 500 nM |  |  |  | 
18 | 50 to 500 nM | Cc1sc2c(c1C)C(c1ccc(N3CCC4(CC3)CN(CCOc3ccc([C@H]5c6ccc(O)cc6CC[C@H]5c5ccccc5)cc3)C4)cc1)=N[C@@H](C)c1nnc(C)n1-2 [III-79] | 50 to 500 nM | 50 to 500 nM |  |  |  | 
19 | < 50 nM | Cc1sc2c(c1C)C(c1ccc(N3CC4(CC(CN5CCN(c6cc(F)c([C@@H]7c8ccc(O)cc8CC[C@@H]7c7ccccc7)c(F)c6)CC5)C4)C3)cc1)=N[C@@H](C)c1nnc(C)n1-2 [III-277] | < 50 nM | 500 to 2500 nM |  |  |  | 

The next lines start with the compound.

Row | Compound | GI50 [3] | GI50 [1, 4] | GI50 [2, 5] | GI50 ([1]; T-Rex 293 cells with doxycycline-induced ERα expression, CellTiter-Glo 2.0, read-out: (+) Dox TRex ERa (GI50)) | GI50 ([2]; T-Rex 293 cells without doxycycline, CellTiter-Glo 2.0, read-out: (−) Dox TRex ERa (GI50)) | GI50 ([1]; Table 7-B, T-Rex 293 cells with doxycycline (increased ERα expression), CellTiter-Glo, read-out: (+) Dox GI50) | GI50 ([2]; Table 7-B, T-Rex 293 cells without doxycycline (lacking increased ERα expression), CellTiter-Glo, read-out: (−) Dox GI50)
20 | Cc1sc2c(c1C)C(c1ccc(N3CCC(CN4CCN(c5ccc(C6=C(c7ccccc7)CCCc7cc(O)ccc76)cc5)CC4)CC3)cc1)=N[C@@H](C)c1nnc(C)n1-2 [IV-39] | 50 to 500 nM | < 50 nM | > 2500 nM |  |  |  | 
21 | Cc1sc2c(c1C)C(c1ccc(N3CC(CN4CCN(c5ccc(C6=C(c7ccc(Cl)cc7Cl)CCCc7cc(C(=O)O)ccc76)cc5)CC4)C3)cc1)=N[C@@H](C)c1nnc(C)n1-2 [IV-10] | 50 to 500 nM | 50 to 500 nM | 500 to 2500 nM |  |  |  | 
22 | CC1=C(c2c(F)cc(F)cc2F)C(c2ccc(OCCN3CCC4(CC3)CCN(c3ccc(C5=N[C@@H](C)c6nnc(C)n6-c6sc(C)c(C)c65)cc3)C4)cc2)Oc2ccc(O)cc21 (stereo partly drawn) [V-16] | 50 to 500 nM | 500 to 2500 nM | 500 to 2500 nM |  |  |  | 
23 | CC1=C(c2c(F)cc(F)cc2F)[C@H](c2ccc(OCC(=O)N3CCCC4(CCN(c5ccc(C6=N[C@@H](C)c7nnc(C)n7-c7sc(C)c(C)c76)cc5)C4)C3)cc2)Oc2ccc(O)cc21 (stereo partly drawn) [V-30] | 50 to 500 nM | 50 to 500 nM | 50 to 500 nM |  |  |  | 
24 | Cc1sc2c(c1C)C(c1ccc(CC3CC4(CCN(CCOc5ccc(C(=O)c6c(-c7ccc(O)cc7)sc7cc(O)ccc67)cc5)CC4)C3)cc1)=N[C@@H](Cc1ncco1)c1nnc(C)n1-2 [I-30, (S)-(6-hydroxy-2-(4-hydroxyphenyl)benzo[b]thiophen-3-yl)(4-(2-(2-(4-(2,3,9-trimethyl-6-(oxazol-2-ylmethyl)-6H-thieno[3,2-f][1,2,4]triazolo[4,3-a][1,4]diazepin-4-yl)benzyl)-7-azaspiro[3.5]nonan-7-yl)ethoxy)phenyl)methanone] | < 50 nM |  |  | < 50 nM | < 50 nM |  | 
25 | Cc1sc2c(c1C)C(c1ccc(N3CC(CC4CN(CC5CN(c6ccc(C7=C(c8ccccc8)CCCc8cc(C(=O)O)ccc87)cc6)C5)C4)C3)cc1)=N[C@@H](C)c1nnc(C)n1-2 [IV-23] | < 50 nM | < 50 nM | 50 to 500 nM |  |  |  | 
26 | COc1cc(N2CCN(CC3(O)CCN(c4ccc(C5=N[C@@H](C)c6nnc(C)n6-c6sc(C)c(C)c65)cc4)CC3)CC2)ccc1C1=C(c2ccccc2Cl)CCCc2cc(C(=O)O)ccc21 [IV-65] | 50 to 500 nM |  |  |  |  | < 50 nM | 500 to 2500 nM
27 | Cc1sc2c(c1C)C(c1ccc(N3CC(CN4CCN(c5ccc(C6=C(c7ccc(Cl)cc7Cl)CCCc7cc(C(=O)O)ccc76)cc5)CC4)C3)cc1)=N[C@@H](Cc1ncco1)c1nnc(C)n1-2 [IV-13] | < 50 nM | < 50 nM | 50 to 500 nM |  |  |  | 
28 | Cc1sc2c(c1C)C(c1ccc(C3CN(C[C@H]4CC[C@H](CN5CC(c6ccc(C7=C(c8ccccc8)CCCc8cc(C(=O)O)ccc87)cc6)C5)CC4)C3)cc1)=N[C@@H](C)c1nnc(C)n1-2 [IV-32] | 50 to 500 nM | < 50 nM | 50 to 500 nM |  |  |  | 
29 | Cc1sc2c(c1C)C(c1ccc(N3CCC(O)(CN4CCN(c5ccc(C6=C(c7ccc(Cl)cc7Cl)CCCc7cc(C(=O)O)ccc76)cc5)CC4)CC3)cc1)=N[C@H](C)c1nnc(C)n1-2 [IV-15] | 500 to 2500 nM | > 2500 nM | > 2500 nM |  |  |  | 
30 | CC1=C(c2c(F)cc(F)cc2F)[C@H](c2ccc(N3CCC(CN4CCC5(CC4)CN(c4ccc(C6=N[C@@H](C)c7nnc(C)n7-c7sc(C)c(C)c76)cc4)C5)CC3)cc2)Oc2ccc(O)cc21 [V-19] | < 50 nM | < 50 nM | 500 to 2500 nM |  |  |  | 

Reference: patent publication US12558428B2, “Heterobifunctional compounds and their use in treating disease” (Halda Therapeutics OpCo, Inc., priority 2024, dated 2026)
